Data reported in the NIST ThermoML archive (doi:10.1021/je7002447).

Columns and labels:
[1] = 298.15 K; 101.33 kPa; Liquid
[2] = excess molar enthalpy (molar enthalpy of mixing); xn = mol fraction of the nth substance listed; settings: 298.15 K, 101.3 kPa, Liquid, Flow calorimetry

CCCc1ccccc1 [propylbenzene]
Settings | mass density [kg/m3]
[1] | 857.62

Clc1ccccc1 [chlorobenzene]
Settings | mass density [kg/m3]
[1] | 1101.17

ClCCc1ccccc1 [(2-chloroethyl)benzene] + CCc1ccccc1
[2]
Settings | excess molar enthalpy [kcal/mol]
x1 = 0.105 | 0.00798
x1 = 0.19 | 0.012
x1 = 0.2603 | 0.0148
x1 = 0.3194 | 0.0181
x1 = 0.3849 | 0.0191
x1 = 0.4841 | 0.0202
x1 = 0.5847 | 0.0193
x1 = 0.6524 | 0.0184
x1 = 0.7379 | 0.0159
x1 = 0.7897 | 0.0144
x1 = 0.8825 | 0.00832
x1 = 0.9037 | 0.00641

Cc1ccccc1 [toluene]
Settings | mass density [kg/m3]
[1] | 862.19

ClCCc1ccccc1 [(2-chloroethyl)benzene] + CCCCc1ccccc1
[2]
Settings | excess molar enthalpy [kcal/mol]
x1 = 0.1063 | 0.0238
x1 = 0.1295 | 0.028
x1 = 0.1655 | 0.0343
x1 = 0.2293 | 0.0443
x1 = 0.3085 | 0.052
x1 = 0.373 | 0.0564
x1 = 0.4424 | 0.0604
x1 = 0.4716 | 0.0607
x1 = 0.5434 | 0.061
x1 = 0.6134 | 0.0592
x1 = 0.7041 | 0.054
x1 = 0.7604 | 0.0477
x1 = 0.8264 | 0.0382
x1 = 0.8639 | 0.0315
x1 = 0.9225 | 0.0195

ClCc1ccccc1 [(chloromethyl)benzene] + CCc1ccccc1
[2]
Settings | excess molar enthalpy [kcal/mol]
x1 = 0.0962 | 0.0125
x1 = 0.1664 | 0.0181
x1 = 0.2102 | 0.0209
x1 = 0.2853 | 0.0242
x1 = 0.4151 | 0.0281
x1 = 0.5156 | 0.0284
x1 = 0.5866 | 0.0278
x1 = 0.6804 | 0.025
x1 = 0.7395 | 0.022
x1 = 0.8098 | 0.018
x1 = 0.8646 | 0.0136
x1 = 0.8949 | 0.00999

Clc1ccccc1 [chlorobenzene] + Cc1ccccc1
[2]
Settings | excess molar enthalpy [kcal/mol]
x1 = 0.1156 | -0.0126
x1 = 0.2072 | -0.0198
x1 = 0.2584 | -0.0226
x1 = 0.3433 | -0.0261
x1 = 0.4107 | -0.0272
x1 = 0.5111 | -0.0274
x1 = 0.6106 | -0.0256
x1 = 0.6765 | -0.023
x1 = 0.807 | -0.0161
x1 = 0.9127 | -0.00798

ClCc1ccccc1 [(chloromethyl)benzene] + CCCCc1ccccc1
[2]
Settings | excess molar enthalpy [kcal/mol]
x1 = 0.1194 | 0.033
x1 = 0.145 | 0.0402
x1 = 0.2028 | 0.0481
x1 = 0.2532 | 0.0596
x1 = 0.3114 | 0.0663
x1 = 0.4041 | 0.073
x1 = 0.5043 | 0.0762
x1 = 0.5756 | 0.0752
x1 = 0.6439 | 0.0712
x1 = 0.7307 | 0.0619
x1 = 0.7834 | 0.0522
x1 = 0.8444 | 0.0413
x1 = 0.8906 | 0.0294
x1 = 0.9313 | 0.0204

ClCc1ccccc1 [(chloromethyl)benzene] + CCCc1ccccc1
[2]
Settings | excess molar enthalpy [kcal/mol]
x1 = 0.1315 | 0.0266
x1 = 0.2325 | 0.038
x1 = 0.3124 | 0.0468
x1 = 0.3772 | 0.0499
x1 = 0.4468 | 0.0527
x1 = 0.5478 | 0.0541
x1 = 0.645 | 0.0484
x1 = 0.7079 | 0.0443
x1 = 0.7842 | 0.0344
x1 = 0.8289 | 0.0245
x1 = 0.8791 | 0.0204
x1 = 0.9065 | 0.0154

ClCCc1ccccc1 [(2-chloroethyl)benzene] + CCCc1ccccc1
[2]
Settings | excess molar enthalpy [kcal/mol]
x1 = 0.1173 | 0.0173
x1 = 0.1375 | 0.0187
x1 = 0.1662 | 0.0221
x1 = 0.2099 | 0.0266
x1 = 0.285 | 0.033
x1 = 0.347 | 0.0364
x1 = 0.4147 | 0.0393
x1 = 0.4436 | 0.0405
x1 = 0.5152 | 0.0411
x1 = 0.5863 | 0.0404
x1 = 0.6145 | 0.0388
x1 = 0.6801 | 0.0369
x1 = 0.7392 | 0.0319
x1 = 0.8096 | 0.0264
x1 = 0.85 | 0.0222
x1 = 0.914 | 0.0138

ClCc1ccccc1 [(chloromethyl)benzene]
Settings | mass density [kg/m3]
[1] | 1094.82

ClCCc1ccccc1 [(2-chloroethyl)benzene]
Settings | mass density [kg/m3]
[1] | 1066.91

CCCCc1ccccc1 [butylbenzene]
Settings | mass density [kg/m3]
[1] | 856.29

c1ccccc1 [benzene]
Settings | mass density [kg/m3]
[1] | 873.58

CCc1ccccc1 [ethylbenzene]
Settings | mass density [kg/m3]
[1] | 862.55

ClCCCc1ccccc1 [(3-chloropropyl)benzene] + Cc1ccccc1
[2]
Settings | excess molar enthalpy [kcal/mol]
x1 = 0.1072 | -0.0125
x1 = 0.1526 | -0.0165
x1 = 0.1936 | -0.0195
x1 = 0.2648 | -0.0232
x1 = 0.3244 | -0.0253
x1 = 0.3507 | -0.0253
x1 = 0.4187 | -0.0272
x1 = 0.4899 | -0.0259
x1 = 0.5193 | -0.0255
x1 = 0.5903 | -0.0243
x1 = 0.6576 | -0.0218
x1 = 0.6836 | -0.0205
x1 = 0.7423 | -0.018
x1 = 0.8121 | -0.0136
x1 = 0.8781 | -0.00882

ClCCCc1ccccc1 [(3-chloropropyl)benzene] + CCc1ccccc1
[2]
Settings | excess molar enthalpy [kcal/mol]
x1 = 0.0766 | -0.00471
x1 = 0.1214 | -0.00691
x1 = 0.1717 | -0.00891
x1 = 0.2372 | -0.0103
x1 = 0.2931 | -0.0111
x1 = 0.3835 | -0.012
x1 = 0.4534 | -0.012
x1 = 0.5251 | -0.0117
x1 = 0.5544 | -0.0114
x1 = 0.6239 | -0.0103
x1 = 0.7133 | -0.00832
x1 = 0.7684 | -0.00719
x1 = 0.8327 | -0.00519
x1 = 0.8924 | -0.00335

Clc1ccccc1 [chlorobenzene] + CCc1ccccc1
[2]
Settings | excess molar enthalpy [kcal/mol]
x1 = 0.1075 | -0.0131
x1 = 0.1308 | -0.0157
x1 = 0.1671 | -0.0186
x1 = 0.2864 | -0.0276
x1 = 0.3111 | -0.029
x1 = 0.4453 | -0.0335
x1 = 0.4745 | -0.0346
x1 = 0.5463 | -0.0341
x1 = 0.6436 | -0.0301
x1 = 0.7625 | -0.0261
x1 = 0.8784 | -0.015
x1 = 0.9233 | -0.00956

Clc1ccccc1 [chlorobenzene] + c1ccccc1
[2]
Settings | excess molar enthalpy [kcal/mol]
x1 = 0.0804 | -0.000502
x1 = 0.1272 | -0.000669
x1 = 0.1794 | -0.000932
x1 = 0.2258 | -0.0011
x1 = 0.3043 | -0.00122
x1 = 0.3684 | -0.00131
x1 = 0.3962 | -0.00139
x1 = 0.4666 | -0.00136
x1 = 0.5384 | -0.00129
x1 = 0.5675 | -0.00131
x1 = 0.6363 | -0.00117
x1 = 0.6999 | -0.001
x1 = 0.7777 | -0.00086
x1 = 0.8235 | -0.000741
x1 = 0.8974 | -0.000406

ClCCCc1ccccc1 [(3-chloropropyl)benzene]
Settings | mass density [kg/m3]
[1] | 1041.84

ClCCc1ccccc1 [(2-chloroethyl)benzene] + c1ccccc1
[2]
Settings | excess molar enthalpy [kcal/mol]
x1 = 0.1016 | 0.00739
x1 = 0.145 | 0.00896
x1 = 0.2028 | 0.0105
x1 = 0.3115 | 0.0114
x1 = 0.4042 | 0.0112
x1 = 0.5044 | 0.00999
x1 = 0.5757 | 0.00856
x1 = 0.6706 | 0.00686
x1 = 0.7308 | 0.00581
x1 = 0.8028 | 0.00471
x1 = 0.8444 | 0.00354

CCCc1ccccc1 [propylbenzene] + Clc1ccccc1
[2]
Settings | excess molar enthalpy [kcal/mol]
x2 = 0.1205 | -0.0121
x2 = 0.1859 | -0.0162
x2 = 0.2551 | -0.0211
x2 = 0.3394 | -0.0244
x2 = 0.4066 | -0.0261
x2 = 0.4774 | -0.0277
x2 = 0.5781 | -0.0261
x2 = 0.6727 | -0.0241
x2 = 0.7851 | -0.0189
x2 = 0.8796 | -0.0118
x2 = 0.9164 | -0.00782

ClCCCc1ccccc1 [(3-chloropropyl)benzene] + CCCc1ccccc1
[2]
Settings | excess molar enthalpy [kcal/mol]
x1 = 0.0863 | 0.000884
x1 = 0.136 | 0.00158
x1 = 0.191 | 0.0022
x1 = 0.2394 | 0.00277
x1 = 0.3207 | 0.00327
x1 = 0.3863 | 0.00392
x1 = 0.4145 | 0.00411
x1 = 0.4856 | 0.00445
x1 = 0.5573 | 0.00466
x1 = 0.5861 | 0.00464
x1 = 0.6538 | 0.00464
x1 = 0.7157 | 0.00423
x1 = 0.7391 | 0.00428
x1 = 0.7906 | 0.00378
x1 = 0.8343 | 0.00311
x1 = 0.9042 | 0.00215
x1 = 0.9189 | 0.00191

CCCCc1ccccc1 [butylbenzene] + Clc1ccccc1
[2]
Settings | excess molar enthalpy [kcal/mol]
x2 = 0.133 | -0.00973
x2 = 0.1609 | -0.0115
x2 = 0.2036 | -0.0139
x2 = 0.2772 | -0.0177
x2 = 0.3383 | -0.0199
x2 = 0.4341 | -0.0219
x2 = 0.535 | -0.0209
x2 = 0.6054 | -0.0194
x2 = 0.6971 | -0.0164
x2 = 0.8036 | -0.0133
x2 = 0.902 | -0.00822

ClCc1ccccc1 [(chloromethyl)benzene] + Cc1ccccc1
[2]
Settings | excess molar enthalpy [kcal/mol]
x1 = 0.1036 | 0.00576
x1 = 0.1877 | 0.00925
x1 = 0.2574 | 0.0113
x1 = 0.3161 | 0.0128
x1 = 0.3813 | 0.014
x1 = 0.4803 | 0.0143
x1 = 0.581 | 0.0133
x1 = 0.649 | 0.0124
x1 = 0.735 | 0.0109
x1 = 0.7871 | 0.00944
x1 = 0.8809 | 0.00571
x1 = 0.9024 | 0.00511

ClCCCc1ccccc1 [(3-chloropropyl)benzene] + CCCCc1ccccc1
[2]
Settings | excess molar enthalpy [kcal/mol]
x1 = 0.1167 | 0.00734
x1 = 0.209 | 0.0142
x1 = 0.2605 | 0.0167
x1 = 0.3458 | 0.0197
x1 = 0.4134 | 0.0216
x1 = 0.5138 | 0.0227
x1 = 0.5849 | 0.0223
x1 = 0.6132 | 0.0214
x1 = 0.6789 | 0.0193
x1 = 0.7381 | 0.0172
x1 = 0.8087 | 0.0137
x1 = 0.9136 | 0.0075

ClCCCc1ccccc1 [(3-chloropropyl)benzene] + c1ccccc1
[2]
Settings | excess molar enthalpy [kcal/mol]
x1 = 0.0913 | -0.00229
x1 = 0.1843 | -0.00478
x1 = 0.2316 | -0.00547
x1 = 0.3113 | -0.00717
x1 = 0.376 | -0.00822
x1 = 0.4455 | -0.00868
x1 = 0.5466 | -0.00868
x1 = 0.6164 | -0.0082
x1 = 0.7068 | -0.00705
x1 = 0.7834 | -0.00569
x1 = 0.8282 | -0.00476
x1 = 0.8577 | -0.00416

ClCCc1ccccc1 [(2-chloroethyl)benzene] + Cc1ccccc1
[2]
Settings | excess molar enthalpy [kcal/mol]
x1 = 0.075 | -7.17e-05
x1 = 0.092 | 0
x1 = 0.1686 | 0.000191
x1 = 0.2332 | 0.000502
x1 = 0.2885 | 0.000645
x1 = 0.3782 | 0.0011
x1 = 0.4478 | 0.00131
x1 = 0.5195 | 0.00167
x1 = 0.5488 | 0.00177
x1 = 0.6186 | 0.00189
x1 = 0.6838 | 0.00184
x1 = 0.7643 | 0.00174
x1 = 0.8122 | 0.00163
x1 = 0.8439 | 0.00146
x1 = 0.8902 | 0.00115
x1 = 0.9068 | 0.00098

ClCc1ccccc1 [(chloromethyl)benzene] + Clc1ccccc1
[2]
Settings | excess molar enthalpy [kcal/mol]
x2 = 0.1118 | 0.0144
x2 = 0.2012 | 0.0215
x2 = 0.2742 | 0.0245
x2 = 0.335 | 0.0271
x2 = 0.4304 | 0.0287
x2 = 0.5312 | 0.0272
x2 = 0.6018 | 0.0253
x2 = 0.6939 | 0.022
x2 = 0.7514 | 0.0187
x2 = 0.8193 | 0.015
x2 = 0.858 | 0.0123
